≈ marks a conversion by molar mass, not a printed value. Calls of active or inactive are those of the source. The calls are words filed in the database; no cut-off is given here.
What was measured:
[1] = biological target: DNA topoisomerase 2-alpha (Homo sapiens) (UniProt P11388); test: Inhibition of human DNA topoisomerase 2 assessed as bacteriophage P4 DNA unknotting at 100 uM after 30 mins by agarose gel electrophoresis
KB = test: Cytotoxicity against human KB cells assessed as reduction in cell number after 3 days by crystal violet staining; type: functional; conditions: 72 h, read-out: ED50 (the source's name)
[2] = biological target: DNA topoisomerase 2-alpha (Homo sapiens) (UniProt P11388); test: Inhibition of DNA topoisomerase 2 in human KB cells assessed as enzyme-[methyl-3H]thymidine-labeled DNA complex formation at 10 uM after 1 hr by K-SDS precipitation assay; type: cell-based
[3] = biological target: DNA topoisomerase 2-alpha (Homo sapiens) (UniProt P11388); test: Inhibition of human DNA topoisomerase 2 assessed as bacteriophage P4 DNA unknotting after 30 mins by agarose gel electrophoresis
[4] = biological target: DNA topoisomerase 2-alpha (Homo sapiens) (UniProt P11388); test: Inhibition of DNA topoisomerase 2 in human KB cells assessed as enzyme-[methyl-3H]thymidine-labeled DNA complex formation at 5 uM after 1 hr by K-SDS precipitation assay; type: cell-based
[5] = Inhibition of microtubule polymerization

Chain of DNA topoisomerase 2-alpha (Homo sapiens) (P11388 whole entry): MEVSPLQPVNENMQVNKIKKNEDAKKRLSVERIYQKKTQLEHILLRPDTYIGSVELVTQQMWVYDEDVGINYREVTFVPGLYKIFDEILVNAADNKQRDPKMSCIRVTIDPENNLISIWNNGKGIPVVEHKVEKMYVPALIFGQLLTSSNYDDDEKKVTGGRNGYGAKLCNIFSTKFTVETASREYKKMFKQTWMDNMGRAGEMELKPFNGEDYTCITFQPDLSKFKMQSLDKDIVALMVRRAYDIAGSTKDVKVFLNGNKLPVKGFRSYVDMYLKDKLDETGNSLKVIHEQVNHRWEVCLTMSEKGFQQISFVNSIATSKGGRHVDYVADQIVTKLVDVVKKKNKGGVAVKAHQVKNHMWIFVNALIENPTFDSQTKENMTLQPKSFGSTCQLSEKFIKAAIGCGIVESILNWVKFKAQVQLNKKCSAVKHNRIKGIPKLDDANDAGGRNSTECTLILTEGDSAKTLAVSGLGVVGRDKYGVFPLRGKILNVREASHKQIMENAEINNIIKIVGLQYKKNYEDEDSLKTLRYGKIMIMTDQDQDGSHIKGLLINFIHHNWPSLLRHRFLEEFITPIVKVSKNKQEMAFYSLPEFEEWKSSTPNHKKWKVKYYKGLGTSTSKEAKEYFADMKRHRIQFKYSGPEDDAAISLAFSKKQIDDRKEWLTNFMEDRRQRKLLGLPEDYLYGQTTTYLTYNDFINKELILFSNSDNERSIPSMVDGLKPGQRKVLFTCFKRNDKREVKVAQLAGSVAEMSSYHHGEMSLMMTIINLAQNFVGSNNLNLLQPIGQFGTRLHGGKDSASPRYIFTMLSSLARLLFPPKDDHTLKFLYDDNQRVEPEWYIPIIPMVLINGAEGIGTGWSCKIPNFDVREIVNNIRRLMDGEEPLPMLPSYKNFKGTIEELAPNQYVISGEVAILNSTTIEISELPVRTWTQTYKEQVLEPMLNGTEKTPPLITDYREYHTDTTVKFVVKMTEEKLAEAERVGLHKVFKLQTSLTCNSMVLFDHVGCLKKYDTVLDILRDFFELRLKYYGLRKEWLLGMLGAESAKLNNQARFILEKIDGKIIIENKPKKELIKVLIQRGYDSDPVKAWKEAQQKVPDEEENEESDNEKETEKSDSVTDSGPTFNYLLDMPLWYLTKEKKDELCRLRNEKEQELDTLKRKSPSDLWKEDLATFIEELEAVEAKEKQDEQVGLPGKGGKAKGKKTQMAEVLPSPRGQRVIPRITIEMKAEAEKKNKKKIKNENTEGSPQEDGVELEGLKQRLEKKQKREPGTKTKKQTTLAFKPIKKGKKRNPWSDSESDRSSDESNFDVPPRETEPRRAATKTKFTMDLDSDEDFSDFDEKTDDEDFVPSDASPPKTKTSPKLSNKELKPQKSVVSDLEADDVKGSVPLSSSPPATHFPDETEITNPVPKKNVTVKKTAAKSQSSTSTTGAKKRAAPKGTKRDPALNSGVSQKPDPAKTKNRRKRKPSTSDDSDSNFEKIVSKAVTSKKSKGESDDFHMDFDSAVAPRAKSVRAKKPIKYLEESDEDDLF

Structure (SMILES)	inhibition [1] [%]	EC50 (KB) [µg/mL]	inhibition [2] [%]	ID50 [3] [µM]	inhibition [4] [%]	Activity [5]
COc1cc([C@@H]2c3cc4c(cc3[C@@H](O)[C@H]3COC(=O)[C@H]23)OCO4)cc(OC)c1O [4'-DEMETHYLEPIPODOPHYLLOTOXIN]	50	0.34 (≈ 0.849 µM)	42.2			
COc1cc([C@@H]2c3cc4c(cc3[C@@H](O[C@@H]3O[C@@H]5CO[C@@H](C)O[C@H]5[C@H](O)[C@H]3O)[C@H]3COC(=O)[C@H]23)OCO4)cc(OC)c1O [ETOPOSIDE]	> 75	0.16 (≈ 0.272 µM)	100	50	56.2	
COc1cc([C@@H]2c3cc4c(cc3[C@H](NCCO)[C@H]3COC(=O)[C@H]23)OCO4)cc(OC)c1O		> 1	0			
COc1cc([C@@H]2c3cc4c(cc3[C@@H](NCCO)[C@H]3COC(=O)[C@H]23)OCO4)cc(OC)c1O	> 75	1.6 (≈ 3.61 µM)	121	50	70.1	
COc1cc([C@@H]2c3cc4c(cc3[C@@H](NCC(C)O)[C@H]3COC(=O)[C@H]23)OCO4)cc(OC)c1O (stereo not given in full)	> 75	3.6 (≈ 7.87 µM)		25	83.9	
COc1cc([C@@H]2c3cc4c(cc3[C@H](O)[C@H]3COC(=O)[C@H]23)OCO4)cc(OC)c1OC						inactive
COc1cc([C@@H]2c3cc4c(cc3[C@@H](NCCCO)[C@H]3COC(=O)[C@H]23)OCO4)cc(OC)c1O	50	4 (≈ 8.74 µM)	89.2			
COc1cc([C@@H]2c3cc4c(cc3[C@H](N)[C@H]3COC(=O)[C@H]23)OCO4)cc(OC)c1O	25	0.25 (≈ 0.626 µM)	8			
COc1cc([C@@H]2c3cc4c(cc3[C@@H](N)[C@H]3COC(=O)[C@H]23)OCO4)cc(OC)c1O	50	0.19 (≈ 0.476 µM)	36.4			
CCCN[C@@H]1c2cc3c(cc2[C@@H](c2cc(OC)c(O)c(OC)c2)[C@H]2C(=O)OC[C@@H]21)OCO3	50	< 0.4	69.7			
COc1cc([C@@H]2c3cc4c(cc3[C@@H](NC(C)CO)[C@H]3COC(=O)[C@H]23)OCO4)cc(OC)c1O (stereo not given in full)	> 75	2.3 (≈ 5.03 µM)		25	89.3	
COc1cc([C@@H]2c3cc4c(cc3[C@H](O)[C@H]3COC(=O)[C@H]23)OCO4)cc(OC)c1O	25	0.045 (≈ 0.112 µM)	3.3			
COCCN[C@@H]1c2cc3c(cc2[C@@H](c2cc(OC)c(O)c(OC)c2)[C@H]2C(=O)OC[C@@H]21)OCO3	75	> 4	111			
C=CCN[C@@H]1c2cc3c(cc2[C@@H](c2cc(OC)c(O)c(OC)c2)[C@H]2C(=O)OC[C@@H]21)OCO3	75	3.4 (≈ 7.74 µM)	84.2			

Source: ChEMBL document CHEMBL1147287, “Antitumor agents, 107. New cytotoxic 4-alkylamino analogues of 4'-demethyl-epipodophyllotoxin as inhibitors of human DNA topoisomerase II” (1989)
